According to patent US11708348B2, “Protease inhibitors for treatment of coronavirus infections” (The Scripps Research Institute, priority 2021, dated 2023):

System: SARS-CoV-2 strain USA-WA1/2020
Experiment: microbe, parasite or virus in culture
Format: cell-based
Settings: Severe acute respiratory syndrome coronavirus 2, HeLa-ACE2, 24 h, HeLa-ACE2 cells, SARS-CoV-2 infection, 24 h; read-out: EC50, uM (Hela)

Compound	EC50
[2H]C([2H])([2H])C(C(=O)N1CC2(CC2)C[C@H]1C(=O)N[C@@H](C[C@@H]1CCNC1=O)C(=O)COC(F)(F)F)C([2H])([2H])[2H] [Compound 739, (S)-5-(2-(methyl-d3)propanoyl-3,3,3-d3)-N-((S)-3-oxo-1-((S)-2-oxopyrrolidin-3-yl)-4-(trifluoromethoxy)butan-2-yl)-5-azaspiro[2.4]heptane-6-carboxamide]	0.05 to 0.2 µM
[2H]C([2H])(CCCC)C(=O)N1CC2(CC2)C[C@H]1C(=O)N[C@@H](C[C@@H]1CCNC1=O)C(=O)COC(F)(F)F [Compound 740, (S)-5-(hexanoyl-2,2-d2)-N-((S)-3-oxo-1-((S)-2-oxopyrrolidin-3-yl)-4-(trifluoromethoxy)butan-2-yl)-5-azaspiro[2.4]heptane-6-carboxamide]	< 0.05 µM
COc1cccc([C@@H](O)C(=O)N2C[C@H]3[C@@H]([C@H]2C(=O)N[C@@H](C[C@@H]2CCNC2=O)C(=O)COC(F)(F)F)C3(C)C)c1F [Compound 741, (1R,2S,5S)-3-((R)-2-(2-fluoro-3-methoxyphenyl)-2-hydroxyacetyl)-6,6-dimethyl-N-((S)-3-oxo-1-((S)-2-oxopyrrolidin-3-yl)-4-(trifluoromethoxy)butan-2-yl)-3-azabicyclo[3.1.0]hexane-2-carboxamide]	< 0.05 µM
CC(C)(C)C[C@H](NC(=O)C(=O)Nc1cccc(C(F)(F)F)n1)C(=O)N[C@@H](C[C@@H]1CCCNC1=O)C(=O)CO [Compound 742, N1-((S)-1-(((S)-4-hydroxy-3-oxo-1-((S)-2-oxopiperidin-3-yl)butan-2-yl)amino)-4,4-dimethyl-1-oxopentan-2-yl)-N2-(6-(trifluoromethyl)pyridin-2-yl)oxalamide]	0.2 to 0.5 µM
O=C(CC(C(F)(F)F)C(F)(F)F)C(=O)N1CC2(CC2)C[C@H]1C(=O)N[C@@H](C[C@@H]1CCNC1=O)C(=O)COC(F)(F)F [Compound 743, (S)-N-((S)-3-oxo-1-((S)-2-oxopyrrolidin-3-yl)-4-(trifluoromethoxy)butan-2-yl)-5-(5,5,5-trifluoro-2-oxo-4-(trifluoromethyl)pentanoyl)-5-azaspiro[2.4]heptane-6-carboxamide]	< 0.05 µM
O=C1NCC[C@H]1C[C@H](NC(=O)[C@@H]1CC2(CC2)CN1C(=O)[C@H](O)CC(C(F)(F)F)C(F)(F)F)C(=O)COC(F)(F)F [Compound 744, (S)-N-((S)-3-oxo-1-((S)-2-oxopyrrolidin-3-yl)-4-(trifluoromethoxy)butan-2-yl)-5-((R)-5,5,5-trifluoro-2-hydroxy-4-(trifluoromethyl)pentanoyl)-5-azaspiro[2.4]heptane-6-carboxamide]	< 0.05 µM
O=C1NCC[C@H]1C[C@H](NC(=O)[C@@H]1CC2(CC2)CN1C(=O)[C@@H](O)CC(C(F)(F)F)C(F)(F)F)C(=O)COC(F)(F)F [Compound 745, (S)-N-((S)-3-oxo-1-((S)-2-oxopyrrolidin-3-yl)-4-(trifluoromethoxy)butan-2-yl)-5-((S)-5,5,5-trifluoro-2-hydroxy-4-(trifluoromethyl)pentanoyl)-5-azaspiro[2.4]heptane-6-carboxamide]	< 0.05 µM
O=C(NC1CC1)C(=O)N1CC2(CC2)C[C@H]1C(=O)N[C@@H](C[C@@H]1CCNC1=O)C(=O)COC(F)(F)F [Compound 746, (S)-5-(2-(cyclopropylamino)-2-oxoacetyl)-N-((S)-3-oxo-1-((S)-2-oxopyrrolidin-3-yl)-4-(trifluoromethoxy)butan-2-yl)-5-azaspiro[2.4]heptane-6-carboxamide]	0.05 to 0.2 µM
CC(C)NC(=O)C(=O)N1CC2(CC2)C[C@H]1C(=O)N[C@@H](C[C@@H]1CCNC1=O)C(=O)COC(F)(F)F [Compound 747, (S)-5-(2-(isopropylamino)-2-oxoacetyl)-N-((S)-3-oxo-1-((S)-2-oxopyrrolidin-3-yl)-4-(trifluoromethoxy)butan-2-yl)-5-azaspiro[2.4]heptane-6-carboxamide]	< 0.05 µM
CC(C)C[C@H](C)C(=O)N1CC2(CC2)C[C@H]1C(=O)N[C@@H](C[C@@H]1CCNC1=O)C(=O)COC(F)(F)F [Compound 748, (S)-5-((S)-2,4-dimethylpentanoyl)-N-((S)-3-oxo-1-((S)-2-oxopyrrolidin-3-yl)-4-(trifluoromethoxy)butan-2-yl)-5-azaspiro[2.4]heptane-6-carboxamide]	0.05 to 0.2 µM
CCNC(=O)C(=O)N1CC2(CC2)C[C@H]1C(=O)N[C@@H](C[C@@H]1CCNC1=O)C(=O)COC(F)(F)F [Compound 749, (S)-5-(2-(ethylamino)-2-oxoacetyl)-N-((S)-3-oxo-1-((S)-2-oxopyrrolidin-3-yl)-4-(trifluoromethoxy)butan-2-yl)-5-azaspiro[2.4]heptane-6-carboxamide]	0.05 to 0.2 µM
CC(F)(F)CCC(=O)N1CC2(CC2)C[C@@H]1C(=O)N[C@H](C[C@@H]1CCNC1=O)C(=O)COC(F)(F)F [Compound 750, (R)-5-(4,4-difluoropentanoyl)-N-((R)-3-oxo-1-((S)-2-oxopyrrolidin-3-yl)-4-(trifluoromethoxy)butan-2-yl)-5-azaspiro[2.4]heptane-6-carboxamide]	0.05 to 0.2 µM
CC(C)C[C@@H](O)C(=O)N1CC(F)(F)C[C@H]1C(=O)N[C@@H](C[C@@H]1CCNC1=O)C(=O)COC(F)(F)F [Compound 751, (S)-4,4-difluoro-1-((R)-2-hydroxy-4-methylpentanoyl)-N-((S)-3-oxo-1-((S)-2-oxopyrrolidin-3-yl)-4-(trifluoromethoxy)butan-2-yl)pyrrolidine-2-carboxamide]	0.05 to 0.2 µM
CC(C)C[C@@H](C)C(=O)N1CC2(CC2)C[C@H]1C(=O)N[C@@H](C[C@@H]1CCNC1=O)C(=O)COC(F)(F)F [Compound 752, (S)-5-((R)-2,4-dimethylpentanoyl)-N-((S)-3-oxo-1-((S)-2-oxopyrrolidin-3-yl)-4-(trifluoromethoxy)butan-2-yl)-5-azaspiro[2.4]heptane-6-carboxamide]	< 0.05 µM
CC(C)C[C@@H](O)C(=O)N1C[C@H](C)C[C@H]1C(=O)N[C@@H](C[C@@H]1CCNC1=O)C(=O)COC(F)(F)F [Compound 753, (2S,4R)-1-((R)-2-hydroxy-4-methylpentanoyl)-4-methyl-N-((S)-3-oxo-1-((S)-2-oxopyrrolidin-3-yl)-4-(trifluoromethoxy)butan-2-yl)pyrrolidine-2-carboxamide]	< 0.05 µM
CC(C)(F)C[C@@H](O)C(=O)N1CC2(CC2)C[C@H]1C(=O)N[C@@H](C[C@@H]1CCNC1=O)C(=O)COC(F)(F)F [Compound 754, (S)-5-((R)-4-fluoro-2-hydroxy-4-methylpentanoyl)-N-((S)-3-oxo-1-((S)-2-oxopyrrolidin-3-yl)-4-(trifluoromethoxy)butan-2-yl)-5-azaspiro[2.4]heptane-6-carboxamide]	0.05 to 0.2 µM
[2H]C([2H])([2H])C([2H])([2H])CCCC(=O)N1CC2(CC2)C[C@H]1C(=O)N[C@@H](C[C@@H]1CCNC1=O)C(=O)COC(F)(F)F [Compound 755, (S)-5-(hexanoyl-5,5,6,6,6-d5)-N-((S)-3-oxo-1-((S)-2-oxopyrrolidin-3-yl)-4-(trifluoromethoxy)butan-2-yl)-5-azaspiro[2.4]heptane-6-carboxamide]	< 0.05 µM
CC(O)C(F)(F)C(=O)N1CC2(CC2)C[C@H]1C(=O)N[C@@H](C[C@@H]1CCNC1=O)C(=O)COC(F)(F)F (stereo partly drawn) [Compound 756, (6S)-5-(2,2-difluoro-3-hydroxybutanoyl)-N-((S)-3-oxo-1-((S)-2-oxopyrrolidin-3-yl)-4-(trifluoromethoxy)butan-2-yl)-5-azaspiro[2.4]heptane-6-carboxamide]	0.05 to 0.2 µM
[2H]C([2H])([2H])CCCCC(=O)N1CC2(CC2)C[C@H]1C(=O)N[C@@H](C[C@@H]1CCNC1=O)C(=O)COC(F)(F)F [Compound 757, (S)-5-(hexanoyl-6,6,6-d3)-N-((S)-3-oxo-l-((S)-2-oxopyrrolidin-3-yl)-4-(trifluoromethoxy)butan-2-yl)-5-azaspiro[2.4]heptane-6-carboxamide]	< 0.05 µM
CCC(OC)C(=O)N1CC2(CC2)C[C@H]1C(=O)N[C@@H](C[C@@H]1CCNC1=O)C(=O)COC(F)(F)F (stereo partly drawn) [Compound 758, (6S)-5-(2-methoxybutanoyl)-N-((S)-3-oxo-1-((S)-2-oxopyrrolidin-3-yl)-4-(trifluoromethoxy)butan-2-yl)-5-azaspiro[2.4]heptane-6-carboxamide]	0.2 to 0.5 µM
O=C1NCC[C@H]1C[C@H](NC(=O)[C@@H]1CC2(CC2)CN1C(=O)[C@H](O)C1CCC1)C(=O)COC(F)(F)F [Compound 760, (S)-5-((R)-2-cyclobutyl-2-hydroxyacetyl)-N-((S)-3-oxo-1-((S)-2-oxopyrrolidin-3-yl)-4-(trifluoromethoxy)butan-2-yl)-5-azaspiro[2.4]heptane-6-carboxamide]	0.05 to 0.2 µM
CC(C)C[C@@H](O)C(=O)N1C[C@H](c2ccccc2)C[C@H]1C(=O)N[C@@H](C[C@@H]1CCNC1=O)C(=O)COC(F)(F)F [Compound 761, (2S,4S)-1-((R)-2-hydroxy-4-methylpentanoyl)-N-((S)-3-oxo-1-((S)-2-oxopyrrolidin-3-yl)-4-(trifluoromethoxy)butan-2-yl)-4-phenylpyrrolidine-2-carboxamide]	< 0.05 µM
CC(C)(F)C(O)C(=O)N1CC2(CC2)C[C@H]1C(=O)N[C@@H](C[C@@H]1CCNC1=O)C(=O)COC(F)(F)F (stereo partly drawn) [Compound 762, (6S)-5-(3-fluoro-2-hydroxy-3-methylbutanoyl)-N-((S)-3-oxo-1-((S)-2-oxopyrrolidin-3-yl)-4-(trifluoromethoxy)butan-2-yl)-5-azaspiro[2.4]heptane-6-carboxamide]	0.05 to 0.2 µM
[2H]C([2H])([2H])CCCC(=O)N1CC2(CC2)C[C@H]1C(=O)N[C@@H](C[C@@H]1CCNC1=O)C(=O)COC(F)(F)F [Compound 763, (S)-N-((S)-3-oxo-1-((S)-2-oxopyrrolidin-3-yl)-4-(trifluoromethoxy)butan-2-yl)-5-(pentanoyl-5,5,5-d3)-5-azaspiro[2.4]heptane-6-carboxamide]	< 0.05 µM
[2H]C([2H])([2H])CCC(=O)N1CC2(CC2)C[C@H]1C(=O)N[C@@H](C[C@@H]1CCNC1=O)C(=O)COC(F)(F)F [Compound 764, (S)-5-(butanoyl-4,4,4-d3)-N-((S)-3-oxo-1-((S)-2-oxopyrrolidin-3-yl)-4-(trifluoromethoxy)butan-2-yl)-5-azaspiro[2.4]heptane-6-carboxamide]	0.05 to 0.2 µM
